Patent publication US20100256179A1, “COMBINATION THERAPY FOR PAIN IN PAINFUL DIABETIC NEUROPATHY” (UCB PHARMA GMBH, priority 2004, published 2010)

Assays:
[1] = test system: pain in subjects with diabetic distal sensory polyneuropathy; experiment: Randomized, double-blind placebo controlled trial of lacosamide in painful diabetic neuropathy: efficacy; format: in vivo, human
Method: A randomized, double-blind placebo controlled trial to investigate safety and efficacy of lacosamide in painful diabetic neuropathy was conducted.
Baseline data were collected during the last week of a 4-week Run-In Phase to ensure subject eligibility. […] The highest attained dose was maintained for 4 weeks during the Maintenance Phase, after which subjects entered the Taper Phase and were tapered off of study medication for 1 week. The Taper Phase was followed by a 2-week Safety Follow-Up Phase.
Subjects were male or female, age 18 or older. Subjects had clinically diagnosed pain attributed to diabetic distal sensory polyneuropathy for 1-5 years and a diagnosis of diabetes mellitus (Type I or Type II). Subjects had at least moderate pain (mean pain intensity during the Baseline week ≧4 out of 10 on an 11-point Likert scale) which had been stable for 4 weeks prior to randomization. Furthermore, subjects had good or fair diabetic control (glycosylated hemoglobin (HbA1C) <10%), which was optimized (best effort to achieve best control) for at least three months prior to Visit 1. Test product, dose and mode of administration, batch number
After completion of screening assessments, subjects began a 4-week Run-In Phase. […] Following the titration scheme, their dosage was escalated by 100 mg in weekly increments to a maximum dose of 400 mg/day (provided tolerability was satisfactory).
If subjects reached total or sufficient pain relief with lower doses than 400 mg/day, after careful consideration by the investigator, they were allowed to stay on the attained dose level in the Maintenance Phase. If adverse events were intolerable during the Titration Phase or the first week of the Maintenance Phase (only for those subjects reaching the 400 mg/day level), subjects could be down-titrated, once, to the next lowest dose. Subjects were treated at 400 mg/day (or highest dose achieved) for 4 weeks in the Maintenance Phase.
The primary variable was the within-subject change in average daily pain score from the Baseline week to Maintenance Phase, using an 11-point Likert scale (0-10). […]

[2] = Trough and peak plasma concentrations of unchanged lacosamide in the trial; format: in vivo, human; conditions: 400 mg/day, Maintenance Phase
[3] = Safety and tolerability of lacosamide in the trial; format: in vivo, human
Text: Safety variables evaluated included adverse events, clinical laboratory assessments, electrocardiograms (ECGs), vital sign measurements, and physical and neurological examinations.

[4] = test system: formalin-induced flinching and licking response of the affected paw; experiment: rat formalin paw test (late phase); format: in vivo
Method: Rats were given an intraplantar injection of 5% formalin (50 μl) into the posterior left paw. This treatment induces a recognizable flinching and licking response of the affected paw in control animals. The number of flinches was counted for 15 minutes, beginning 20 minutes after injection of formalin. The time spent licking the affected paw was also recorded.
Male Rj: Wistar (Han) rats, 10 per group, weighing 100-130 g at the beginning of the experiments were studied per group. The test was performed blind.

[5] = of 60 subjects in the lacosamide group
[6] = Example 2, lacosamide 20 mg/kg i.p.
[7] = Example 3, lacosamide 10 mg/kg i.p.
[8] = Example 3, lacosamide 20 mg/kg i.p.
[9] = Example 4, lacosamide 10 mg/kg i.p.
[10] = Example 5, lacosamide 10 mg/kg i.p.
[11] = Example 5, lacosamide 20 mg/kg i.p.
[12] = Example 5, lacosamide alone at 10 mg/kg

SMILES: COC[C@@H](NC(C)=O)C(=O)NCc1ccccc1 [Lacosamide, (R)-2-acetamido-N-benzyl-3-methoxypropionamide]
- reduction in pain from Baseline to the Maintenance Phase (average daily pain score, 11-point Likert scale), LSMean ([1]; Full Analysis Set (LOCF), oral lacosamide titrated to max 400 mg/day): 3.11 point
- proportion of subjects with a decrease of 2 or more points on the Likert pain scale ([1]; compared with the placebo group, all phases of the trial): larger proportion
- CGIC and PGIC scores ([1]; end of Maintenance Phase (Visit 10), lacosamide and placebo): Statistically significant differences
- difference in LSMean pain score between the two groups ([1]; lacosamide vs placebo, FAS (LOCF), p=0.0390): 0.9
- mean plasma drug concentration, peak ([2]; Visit 9): 11400 ng/mL
- mean plasma drug concentration, trough ([2]; Visit 9): 7700 ng/mL
- mean plasma drug concentration, peak ([2]; Visit 10): 9100 ng/mL
- mean plasma drug concentration, trough ([2]; Visit 10): 7900 ng/mL
- HbA1C level, mean change ([3]; Baseline to Visit 8, lacosamide group): 0.1%
- Body weight change during treatment ([3]; lacosamide group): -0.5 kg
- subjects who withdrew from the trial due to an AE ([3]; lacosamide group): 5 subjects
- subjects with a serious adverse event (SAE) ([3]; lacosamide treatment group, abnormal ECG judged unlikely related to study medication): one
- mean duration of exposure to study medication ([3]; lacosamide treatment group, indicating high tolerability): 59.6 days
- subjects reporting adverse events associated with the central and peripheral nervous system ([3]; of 60 lacosamide subjects): 38%
- subjects who reported at least one treatment-emergent adverse event (TEAE), overall incidence rate [3, 5]: 87%
- subjects who withdrew from the trial due to an AE [3, 5]: 8%
- weight gain ([3]; trial conclusion): did not induce weight gain
- Licking time % change (a): compared with vehicle control [4, 6]: −34% (a)
- Licking time (seconds) mean ± SEM [4, 6]: 146.9 ± 23.8 s
- No. of flinches % change (a): compared with vehicle control [4, 6]: −33% (a)
- No. of flinches mean ± SEM [4, 6]: 85.7 ± 14.3
- decrease in number of flinches as compared with vehicle controls ([4]; Example 2, lacosamide alone at 20 mg/kg): 33%
- decrease in time spent licking as compared with vehicle controls ([4]; Example 2, lacosamide alone at 20 mg/kg, p=0.0962): 34%
- Licking time % change (a): compared with vehicle control [4, 7]: −28% (a)
- Licking time (seconds) mean ± SEM [4, 7]: 210.1 ± 22.7 s
- No. of flinches % change (a): compared with vehicle control [4, 7]: +22% (a)
- No. of flinches mean ± SEM [4, 7]: 182.7 ± 25.9
- Licking time % change (a): compared with vehicle control [4, 8]: −56% (a)
- Licking time (seconds) mean ± SEM [4, 8]: 128.2 ± 28.0 s
- No. of flinches % change (a): compared with vehicle control [4, 8]: −35% (a)
- No. of flinches mean ± SEM [4, 8]: 97.2 ± 16.0
- increase in number of flinches as compared with vehicle controls ([4]; Example 3, lacosamide alone at 10 mg/kg): 22%
- decrease in time spent licking ([4]; Example 3, lacosamide alone at 10 mg/kg, p<0.05): 28%
- decrease in time spent licking ([4]; Example 3, lacosamide alone at 20 mg/kg, p<0.001): 56%
- decrease in number of flinches as compared with vehicle controls ([4]; Example 3, lacosamide alone at 20 mg/kg, p=0.0961): 35%
- decrease in time spent licking ([4]; Example 4, lacosamide 10 mg/kg alone, p=0.0538): 30%
- Licking time % change (a): compared with vehicle control [4, 9]: −30% (a)
- Licking time (seconds) mean ± SEM [4, 9]: 185.2 ± 31.7 s
- No. of flinches % change (a): compared with vehicle control [4, 9]: +5% (a)
- No. of flinches mean ± SEM [4, 9]: 158.2 ± 15.6
- Licking time % change (a): compared with vehicle control [4, 10]: −4% (a)
- Licking time (seconds) mean ± SEM [4, 10]: 168.5 ± 23.9 s
- No. of flinches % change (a): compared with vehicle control [4, 10]: −31% (a)
- No. of flinches mean ± SEM [4, 10]: 113.9 ± 23.2
- Licking time % change (a): compared with vehicle control [4, 11]: −52% (a)
- Licking time (seconds) mean ± SEM [4, 11]: 85.1 ± 19.1 s
- No. of flinches % change (a): compared with vehicle control [4, 11]: −48% (a)
- No. of flinches mean ± SEM [4, 11]: 85.8 ± 14.4
- decrease in number of flinches as compared with vehicle controls [4, 12]: 31%
- effect on time spent licking [4, 12]: no clear effects
- decrease in time spent licking ([4]; Example 5, lacosamide alone at 20 mg/kg, p<0.01): 52%
- decrease in number of flinches as compared with vehicle controls ([4]; Example 5, lacosamide alone at 20 mg/kg, p<0.05): 48%
